The structures appear in SMILES notation.

Series [1] can be described thus: Chemical stability of amine co-initiators by 1H NMR in DMSO-d6/water. Format: physicochemical. As to conditions: 100 days storage at 25° C., 0.04 M in DMSO-d6/deionized water 80/20 wt/wt. On the procedure:
The chemical stability of three amine co-initiators (EDMAB, DMAEMA, and TUMA) was characterized by ^1H NMR spectroscopy, which were obtained on a Bruker Advance DRX 500 spectrometer (Bruker AXS Inc., Madison, Wis.) equipped with a broadband probe. Deuterated dimethyl sulfoxide (DMSO-d6)/deionized water (80/20 wt/wt) was used as the solvent. The NMR spectra of 0.04 M amine samples were monitored as a function of storage time at 25° C. The mixed (DMSO/water) solvent was used because of its ability to dissolve EDMAB and TUMA, which are hydrophobic compounds.

The conditions of series [2]: during 24 hours; cited from earlier work.

As for `C=C(C)C(=O)OCCNC(=O)OC(C)CN(CC(C)OC(=O)NCCOC(=O)C(=C)C)CC(C)OC(=O)NCCOC(=O)C(=C)C` (stereo not shown) [TUMA, 8-(2-(((2-(methacryloyloxy)ethyl)carbamoyl)oxy)propyl)-6,10-dimethyl-4,12-dioxo-5,11-dioxa-3,8,13-triazapentadecane-1,15-diyl bis(2-methylacrylate)], the “degraded (chemical stability)” value in series [1] is reported as “No degradation was detected”.

In the case of `CCOC(=O)c1ccc(N(C)C)cc1` [EDMAB, Ethyl-4-(dimethylamino) benzoate], in series [1], the “degraded (chemical stability)” value is reported as “No degradation was detected”.

Regarding `C=C(C)C(=O)OCCN(C)C` [DMAEMA, 2-(dimethylamino) ethyl methacrylate], in series [1], the “degraded (chemical stability)” value is on record as 37.6%. For the same compound, in series [2], the “degradation in the presence of water” value is “up to 82%”.

Source of the values: patent US10501562B2, “Co-initiator and co-monomer for use in preparing polymer related compositions, methods of manufacture, and methods of use” (University of Kansas, priority 2015, dated 2019).
